Test results reported in ChEMBL document CHEMBL2095176, “GSK Tuberculosis Screening Data”.
Converted amounts (≈) assume the structure as drawn.

Test system: Mycobacterium tuberculosis variant bovis BCG
Assay: microbe, parasite or virus in culture
Assay type: functional

SMILES	MIC90 [µM]
Cc1nnc(NCc2cccc(Cl)c2)c2ccccc12	1.5 (≈ 0.426 µg/mL)
Cc1ccc(-c2ccc(SCC(=O)Nc3nonc3C)nn2)cc1	6.8 (≈ 2.32 µg/mL)
Cc1ccc(-n2cc3c(-c4ccc(Cl)cc4)nnc(C)c3n2)cc1	5.7 (≈ 1.91 µg/mL)
Cc1cc(O)nc(-n2nc(C)cc2NC(=O)c2cc3ccccc3o2)n1	6.2 (≈ 2.17 µg/mL)
O=C(Nc1nc(-c2ccccn2)cs1)c1ccc2c(c1)CCCC2	6.8 (≈ 2.28 µg/mL)
c1ccc(-c2nnc(Sc3ccnc(N4CCN(c5ccncc5)CC4)n3)n2CCCN2CCOCC2)nc1	4.6 (≈ 2.51 µg/mL)
CN(C)c1ccc(NC(=O)Nc2ccccc2C(F)(F)F)cc1	6.4 (≈ 2.07 µg/mL)
O=C(COc1ccc(-c2ccccc2)cc1)NNC(=O)c1ccncc1	5.7 (≈ 1.98 µg/mL)
COc1ccc(-c2cnc(Nc3cccc(S(=O)(=O)CCN4CCc5ccccc5C4)c3)nc2)cn1	5.7 (≈ 2.86 µg/mL)
Cc1cc2cc(C)c(NCCN)nc2cc1C	5.7 (≈ 1.31 µg/mL)
O=C(Nc1nnc(-c2ccccc2)o1)c1ccc(F)cc1	5.8 (≈ 1.64 µg/mL)
CN(C)S(=O)(=O)c1ccc(C(=O)Nc2nnc(-c3ccc(Cl)s3)o2)cc1	5.7 (≈ 2.35 µg/mL)
Nc1cc(-c2ccc(Cl)cc2)nn1-c1cccc(C(=O)NCC2CC(=O)N(c3ccccc3)C2)c1 (stereo not drawn)	5.9 (≈ 2.87 µg/mL)
COc1cccc(-c2cc(OC[C@@H]3CCCN3)cnc2-c2cccc(C(F)(F)F)c2)c1	5.9 (≈ 2.53 µg/mL)
COc1ccccc1C(=O)N(Cc1cccnc1)Cc1cc2c(C)cc(C)cc2nc1Cl	5.9 (≈ 2.63 µg/mL)
COc1ccc(C2CC(=O)N(Cc3cccc(F)c3)c3ccccc3S2)cc1OC (stereo not drawn)	5.9 (≈ 2.5 µg/mL)
Cc1ccc2[nH]c(SCC(=O)NNC(=O)c3cccs3)nc2c1	5.9 (≈ 2.04 µg/mL)
Cc1cccc(C)c1CNc1c(C(N)=O)cnc2c(C)cccc12	5.9 (≈ 1.88 µg/mL)
COc1cc(-c2ccccc2)c(Cl)cc1C(=O)Nc1cccc2c1CCN(C)C2	5.9 (≈ 2.4 µg/mL)
Cc1ccc2c(OC3CCNCC3)cccc2n1	5.9 (≈ 1.43 µg/mL)
O=C(Nc1nnc(-c2ccc(F)cc2)o1)c1ccc(C(F)(F)F)cc1	6 (≈ 2.11 µg/mL)
COc1cc(CN2CCCC(c3cc(C(F)(F)F)n4nc(C)cc4n3)C2)ccc1O (stereo not drawn)	6 (≈ 2.52 µg/mL)
COc1ccc(Nc2nc(CN3CCN(Cc4cc(=O)n5ccsc5n4)CC3)cs2)cc1	6 (≈ 2.81 µg/mL)
Fc1cccc(Sc2nccc(N3CCNCC3)n2)c1	6 (≈ 1.74 µg/mL)
C=CCNCCS(=O)(=O)c1cccc(Nc2ccc(-c3ccsc3)cn2)c1	6 (≈ 2.4 µg/mL)

SMILES	MIC90 [µM]
Clc1ccc(OCc2noc(CC3CCN(CCOCc4ccccc4)C3)n2)cc1 (stereo not drawn)	6 (≈ 2.57 µg/mL)
COc1cc(NC(=O)c2sc(-c3ccc(Cl)cc3)cc2/N=C2/CCCCN2C)ccc1OCCN1CCCC1	6 (≈ 3.4 µg/mL)
COCCN(C)Cc1ccc(-c2cc(-c3c[nH]nc3-c3cccc(C)n3)ccn2)cc1	6 (≈ 2.48 µg/mL)
O=C(CCC1CCCCC1)Nc1cccc(-c2nnc(-c3ccco3)o2)c1	9.2 (≈ 3.36 µg/mL)
CCOc1ccc(C=C(C(=O)NCc2ccc(F)cc2)c2nc3ccccc3[nH]2)cc1	6.1 (≈ 2.53 µg/mL)
Cc1cc(Oc2ccc(-n3ccnc3)cc2)nc(N2CCN[C@@H](Cc3ccccc3)C2)n1	6.1 (≈ 2.6 µg/mL)
Cc1cc2nc(C)n(CCCOc3ccccc3)c2cc1C	6.1 (≈ 1.8 µg/mL)
Cc1cccc(-c2noc(CNC(=O)c3ccccc3CCc3ccccc3)n2)c1	6.1 (≈ 2.42 µg/mL)
Cc1ccc(-c2ccnc(-c3cccc(-c4ccccn4)n3)c2)cc1	6.1 (≈ 1.97 µg/mL)
N=c1n(CCC2CCCCC2)nnn1Cc1ccccc1	6.1 (≈ 1.74 µg/mL)
Cc1ccc(C(=O)Nc2nnc(-c3ccccc3Cl)o2)cc1	6.1 (≈ 1.91 µg/mL)
c1cc(COc2ccc(C3=NCCN3)cc2)nc(COc2ccc(C3=NCCN3)cc2)c1	6.1 (≈ 2.61 µg/mL)
COc1cc(Nc2ccccc2)ccc1NS(=O)(=O)c1c(C)noc1C	2.9 (≈ 1.08 µg/mL)
N=C(N)c1ccc(CCN2CCC(c3nc(COCC(F)(F)F)c(-c4ccc(F)cc4)o3)CC2)cc1.O=C(O)C(F)(F)F.O=C(O)C(F)(F)F	8.2
Cc1n[nH]c(C)c1S(=O)(=O)Nc1ccc2c[nH]nc2c1	6.2 (≈ 1.81 µg/mL)
Brc1ccc(-c2noc(C3CCCNC3)n2)cc1 (stereo not drawn)	6.2 (≈ 1.91 µg/mL)
O=C1NN=C(c2ccc3c(c2)OCO3)N[C@H]1Cc1c[nH]c2ccccc12	6.2 (≈ 2.16 µg/mL)
Cc1ccc(C2(c3ccc(C)cc3)NC(=O)N(CC(=O)N3CCC(Cc4ccccc4)CC3)C2=O)cc1	6.2 (≈ 3.07 µg/mL)
O=C(Nc1nc(CN2CCCCC2)cs1)c1ccccc1OCc1ccc(F)cc1	6.2 (≈ 2.64 µg/mL)
CC(C)c1ccc(NC(=O)c2ccc(C(=O)NC3CCCNC3)cc2)cc1 (stereo not drawn)	6.2 (≈ 2.27 µg/mL)
Cc1cc(Oc2cccc3[nH]ccc23)nc(N2CCNCC2)n1	6.2 (≈ 1.92 µg/mL)
Cc1nc2ccccn2c1C(=O)Nc1ccc(C(C)(C)C)cc1	4.9 (≈ 1.51 µg/mL)
COc1cc2c(cc1OC)C(c1ccccc1)N(C(=O)c1nn(C)c(=O)c3ccccc13)CC2 (stereo not drawn)	6.3 (≈ 2.87 µg/mL)
FC(F)(F)c1ccccc1C1CCN(Cc2[nH]nc3ccccc23)CC1	6.3 (≈ 2.26 µg/mL)
O=C(Nc1nc2c(F)cc(F)cc2s1)C1CCCN1S(=O)(=O)c1cccs1 (stereo not drawn)	6.3 (≈ 2.71 µg/mL)

SMILES	MIC90 [µM]
c1ccc(-c2nnc(Sc3ccnc(N4CCN(c5ccncc5)CC4)n3)n2CCCN2CCOCC2)cc1	6.3 (≈ 3.43 µg/mL)
NC(=O)c1nnc(Sc2ccnc(N3CCN(c4ccncc4)CC3)n2)n1-c1ccccc1	6.3 (≈ 2.9 µg/mL)
O=C(Nc1cccc(Cl)c1)NC12CC3CC(CC(C3)C1)C2	6.3 (≈ 1.92 µg/mL)
O=C(CCc1cccs1)Nc1nc(-c2ccccn2)cs1	6.4 (≈ 2.02 µg/mL)
CCOc1ncccc1C(=O)Nc1ccccc1Nc1ccccc1	6.4 (≈ 2.13 µg/mL)
Cc1cc(Cl)cc2nc(N3CCCNCC3)oc12	6.4 (≈ 1.7 µg/mL)
COc1ccc(-c2nc(CCNC(=O)c3ccc(OC)cc3OC)cs2)cc1	6.4 (≈ 2.55 µg/mL)
Cc1ccc(Cl)c2sc(N(CCN(C)C)C(=O)CS(=O)(=O)c3ccc(F)cc3)nc12	6.4 (≈ 3.01 µg/mL)
Cc1noc(C)c1COc1ccc(C(=O)N2CCCCC2c2nc3ccccc3s2)cc1 (stereo not drawn)	6.4 (≈ 2.86 µg/mL)
O=C(CCc1nc2ccccc2oc1=O)N[C@@H]1CCC(=O)N[C@H]1c1ccsc1	6.4 (≈ 2.54 µg/mL)
c1ccc(COc2ccc(CN3CCC4(CC3)OCCc3sccc34)cc2)nc1	6.4 (≈ 2.6 µg/mL)
CCCCc1cc(OC)c(C(=O)Nc2cccc3c2CCN(C)C3)cc1Cl	6.4 (≈ 2.48 µg/mL)
O=C(NC1CCCCC1)c1cc2cc(OC(F)(F)F)ccc2[nH]1	6.4 (≈ 2.09 µg/mL)
COc1ccc(-c2cc3nccc(C4CCCNC4)n3n2)cc1 (stereo not drawn)	6.5 (≈ 2 µg/mL)
O=C(c1ccc(-c2cccc(OCCN(CCO)C3CCCCC3)c2)cc1)N1CCCC1	6.5 (≈ 2.84 µg/mL)
CC(C)c1ccc(OCC(=O)NNC(=O)c2ccncc2)cc1	6.5 (≈ 2.04 µg/mL)
Cc1cc(C)n(Cc2ccc(C(=O)NC3CCC(C(C)(C)C)CC3)cc2)n1 (stereo not drawn)	6.5 (≈ 2.39 µg/mL)
O=C(CSc1nnc(-c2ccccc2)o1)Nc1nc(-c2ccccn2)cs1	6.6 (≈ 2.61 µg/mL)
O=C(NCc1ccccc1F)N1CCN(Cc2ccc(Br)s2)CC1	9.4 (≈ 3.88 µg/mL)
O=C(N[C@@H](Cc1ccccc1)C(=O)Nc1ccccc1N1CCOCC1)c1cccs1	3.2 (≈ 1.39 µg/mL)
CSc1ccc(-c2nnc(NC(=O)c3ccc(Cl)s3)o2)cc1	6.5 (≈ 2.29 µg/mL)
OC1(c2ccccc2)Oc2ccccc2N=C1c1ccccc1 (stereo not drawn)	4.8 (≈ 1.45 µg/mL)
Fc1ccc2[nH]c(-c3cccc(-c4ccc(CNCCN5CCNCC5)cc4)c3)nc2c1	6.7 (≈ 2.88 µg/mL)
CCCc1cc(-c2nc(-c3ccc(OC)c(OC)c3)cs2)ccn1	6.7 (≈ 2.28 µg/mL)
CCCc1cc(-c2nc(-c3ccc4c(c3)OCO4)cs2)ccn1	6.7 (≈ 2.17 µg/mL)

SMILES	MIC90 [µM]
Cc1cc(/C=C/c2cccc(C(=O)O)c2)cc(Cl)c1OCC1CCCNC1 (stereo not drawn)	6.7 (≈ 2.59 µg/mL)
Clc1ccc(-c2ccc3c(c2)CC(NCc2ccc(-n4cncn4)cc2)C3)cc1 (stereo not drawn)	6.7 (≈ 2.69 µg/mL)
COc1cc(CN2CCC(Cc3nc(-c4ccc5c(c4)CCO5)no3)C2)ccc1F (stereo not drawn)	6.7 (≈ 2.74 µg/mL)
CC(C)Oc1ccc(NCC(=O)Nc2ccc(F)cc2)cc1	6.7 (≈ 2.03 µg/mL)
O=C(CSc1ccccc1)Nc1nc(-c2ccccn2)cs1	6.7 (≈ 2.19 µg/mL)
O=c1c2sc(-c3ccc(Cl)cc3)cc2ncn1-c1ccc(OCCN2CC[C@@H](F)C2)cc1	6.7 (≈ 3.15 µg/mL)
CC(C)OC(=O)COc1ccc(-c2cnc(N(C)CCc3ccncc3)nc2)cc1	8.5 (≈ 3.46 µg/mL)
COCCCNCCOc1ccc2ccccc2c1Br	6.8 (≈ 2.3 µg/mL)
O=C(NC(=Cc1ccc(-c2cccc(C(F)(F)F)c2)o1)C(=O)N1CCOCC1)c1ccccc1	6.8 (≈ 3.2 µg/mL)
O=C(NNC(=O)C1CC1C(=O)O)c1ccncc1 (stereo not drawn)	6.8 (≈ 1.69 µg/mL)
CC(C)c1ccc(C(=O)Nc2ccc3c(c2)CN(C)CC3)cc1C(F)(F)F	6.8 (≈ 2.56 µg/mL)
COc1ccc(CC(=O)Nc2c(-c3cccs3)nc3cc(C)ccn23)cc1	9.2 (≈ 3.47 µg/mL)
COc1ccc(-c2nc(NC(=O)C3CCCN3S(=O)(=O)c3cccs3)sc2C)cc1 (stereo not drawn)	6.9 (≈ 3.2 µg/mL)
CC(=O)Oc1ccc(Cn2cc(C(=O)NCc3ccccc3)sc2=O)cc1	6.9 (≈ 2.64 µg/mL)
CS(=O)(=O)c1oc(-c2cccs2)nc1S(=O)(=O)c1ccc(F)cc1	6.9 (≈ 2.67 µg/mL)
CC(C)COc1ccc(C(=O)Nc2ccc(N3CCN(C)CC3)cc2)cc1	6.9 (≈ 2.54 µg/mL)
O=C(Nc1cccc(C(=O)N2CCCC2c2nc3ccccc3s2)c1)c1cccs1 (stereo not drawn)	6.9 (≈ 2.99 µg/mL)
Cc1cc(=O)[nH]c(-n2nc(C)cc2NC(=O)COc2ccccc2C)n1	6.9 (≈ 2.44 µg/mL)
COc1ccc(-c2ccc(Nc3cccc(S(=O)(=O)CCNCCn4nc(C)cc4C)c3)nc2)cn1	6.9 (≈ 3.5 µg/mL)
O=C(Nc1nncs1)c1c(O)c2ccccc2n(Cc2ccccc2)c1=O	6.9 (≈ 2.61 µg/mL)
Clc1ccc2c(N3CCNCC3)ccnc2c1	6.5 (≈ 1.61 µg/mL)
Clc1ccc(Nc2nc(-c3ccccn3)cs2)nc1	1.2 (≈ 0.347 µg/mL)
Cc1ccc2c(NC(=O)Nc3ccc(N(C)C)cc3)cc(C)nc2c1	5.8 (≈ 1.94 µg/mL)
